# Source: ChEMBL document CHEMBL3997785, “Optimization of 2-Anilino 4-Amino Substituted Quinazolines into Potent Antimalarial Agents with Oral in Vivo Activity” (J Med Chem, 2017)
# Calls of active or inactive are those of the source. The calls are words filed in the database; no cut-off is given here.
# How the values were obtained:
# [1] = test system: Plasmodium falciparum; test: Antimalarial activity against Plasmodium falciparum 3D7 asexual blood stage infected in human erythrocytes incubated for 72 hrs by LDH assay; format: functional, cell-based; conditions: 3D7, 72 h
# [2] = test system: Plasmodium falciparum; test: Antimalarial activity against synchronous culture of Plasmodium falciparum 3D7 ring stage parasite infected in human erythrocytes incubated for 3 hrs followed by compound wash out and measured after 24 hrs by NanoGlo-reagent based bioluminescence assay; format: functional, cell-based
# [3] = test system: Plasmodium falciparum; test: Antimalarial activity against synchronous culture of Plasmodium falciparum 3D7 ring stage parasite infected in human erythrocytes incubated for 6 hrs followed by compound wash out and measured after 24 hrs by NanoGlo-reagent based bioluminescence assay; format: functional, cell-based
# [4] = test system: Plasmodium falciparum; test: Antimalarial activity against synchronous culture of Plasmodium falciparum 3D7 ring stage parasite infected in human erythrocytes incubated for 24 hrs followed by compound wash out and measured after 24 hrs by NanoGlo-reagent based bioluminescence assay; format: functional, cell-based; conditions: 3D7, 24 h
# [5] = test system: Plasmodium falciparum; test: Antimalarial activity against Plasmodium falciparum NF54 harboring pfs16-LUC-GFP ring stage gametocytes after 24 hrs by MitoTracker Red staining based confocal microscopy; format: functional; conditions: NF54, 24 h
# [6] = test system: Plasmodium falciparum; test: Antimalarial activity against Plasmodium falciparum NF54 harboring pfs16-LUC-GFP late stage 4 to 5 gametocytes after 48 hrs by MitoTracker Red staining based confocal microscopy; format: functional; conditions: NF54, 48 h
# [7] = Intrinsic clearance in human liver microsomes at 1 uM in presence of NADPH by LC-MS method; format: ADME, microsome; conditions: read-out: CLH
# [8] = Aqueous solubility of the compound at pH 6.5 by nephelometry; format: physicochemical
# [9] = test system: HepG2; test: Cytotoxicity against human HepG2 cells assessed as growth inhibition after 48 hrs by Cell Titer-Glo assay; format: cell-based; conditions: HepG2, 48 h
# [10] = Selectivity index, ratio of EC50 for human HepG2 cells to EC50 for Plasmodium falciparum 3D7 asexual blood stage infected in human erythrocytes; format: toxicity, cell-based; conditions: read-out: Ratio EC50
# [11] = Aqueous solubility of the compound at pH 2 by nephelometry; format: physicochemical
# [12] = Half life in human liver microsomes at 1 uM in presence of NADPH by LC-MS method; format: ADME, microsome
# [13] = Half life in mouse liver microsomes at 1 uM in presence of NADPH by LC-MS method; format: ADME, microsome
# [14] = Intrinsic clearance in mouse liver microsomes at 1 uM in presence of NADPH by LC-MS method; format: ADME, microsome; conditions: read-out: CLH
# [15] = test system: Liver; test: Drug metabolism in human liver microsomes assessed as O-demethylation of 6 and 7 methoxy groups at 1 uM after 60 mins in presence of NADPH by LC-MS method; format: ADME, microsome; conditions: 1 h
# [16] = test system: Liver; test: Drug metabolism in mouse liver microsomes assessed as O-demethylation of 6 and 7 methoxy groups at 1 uM after 60 mins in presence of NADPH by LC-MS method; format: ADME, microsome; conditions: 1 h
# [17] = Hepatic extraction ratio in human liver microsomes at 1 uM in presence of NADPH by LC-MS method; format: ADME, microsome; conditions: read-out: ERH
# [18] = Hepatic extraction ratio in mouse liver microsomes at 1 uM in presence of NADPH by LC-MS method; format: ADME, microsome; conditions: read-out: ERH
# [19] = test system: Plasmodium falciparum; test: Antimalarial activity against chloroquine and mefloquine resistant Plasmodium falciparum W2mef infected in human erythrocytes incubated for 72 hrs by LDH assay; format: functional, cell-based
# [20] = test system: Plasmodium falciparum; test: Antimalarial activity against synchronous culture of Plasmodium falciparum 3D7 infected in human erythrocytes assessed as development arrest at ring stage of asexual life cycle leading to parasite death at 10 times EC50 up to 48 hrs by Giemsa-staining based assay relative to control; format: functional, cell-based
# [21] = test system: Plasmodium falciparum; test: Antimalarial activity against Plasmodium falciparum NF54 harboring pfs16-LUC-GFP early stage 1 to 3 gametocytes after 48 hrs by MitoTracker Red staining based confocal microscopy; format: functional; conditions: NF54, 48 h
# [22] = test system: Plasmodium berghei; test: Antimalarial activity against Plasmodium berghei ANKA infected Swiss black mouse model at 20 mg/kg administered via oral gavage for 4 days starting 4 hrs post infection by microscopic method; format: functional
# [23] = test system: Plasmodium berghei; test: Antimalarial activity against Plasmodium berghei ANKA infected Swiss black mouse at 20 mg/kg, ip administered for 4 days starting 4 hrs post infection by microscopic method; format: functional
# [24] = test system: Plasma; test: Drug uptake in Plasmodium berghei ANKA infected Swiss black mouse plasma at 20 mg/kg, ip measured after 20 hrs; format: ADME, organism-based; conditions: in vivo
# [25] = test system: Plasmodium falciparum; test: Antimalarial activity against Plasmodium falciparum 3D7 infected in human erythrocytes assessed as arrest at trophozoite stage of asexual life cycle leading to parasite death at 10 times EC50 up to 48 hrs by Giemsa-staining based assay relative to control; format: functional, cell-based
# [26] = test system: Liver; test: Drug metabolism in human liver microsomes assessed as N-demethylation of methyl piperidine or piperazine at 1 uM after 60 mins in presence of NADPH by LC-MS method; format: ADME, microsome; conditions: 1 h
# [27] = test system: Liver; test: Drug metabolism in mouse liver microsomes assessed as N-demethylation of methyl piperidine or piperazine at 1 uM after 60 mins in presence of NADPH by LC-MS method; format: ADME, microsome; conditions: 1 h
# [28] = test system: Liver; test: Drug metabolism in human liver microsomes assessed as mono-oxygenation at 6th position of quinazoline at 1 uM after 60 mins in presence of NADPH by LC-MS method; format: ADME, microsome; conditions: 1 h
# [29] = test system: Liver; test: Drug metabolism in mouse liver microsomes assessed as mono-oxygenation at 6th position of quinazoline at 1 uM after 60 mins in presence of NADPH by LC-MS method; format: ADME, microsome; conditions: 1 h
# [30] = Ratio of EC50 for Plasmodium falciparum NF54-pfs16-LUC-GFP ring stage gametocytes to EC50 for Plasmodium falciparum 3D7 asexual blood stage infected in human erythrocytes; format: functional
# [31] = Ratio of EC50 for Plasmodium falciparum NF54-pfs16-LUC-GFP early stage gametocytes to EC50 for Plasmodium falciparum 3D7 asexual blood stage infected in human erythrocytes; format: functional
# [32] = test system: Plasma; test: Drug uptake in Plasmodium berghei ANKA infected Swiss black mouse plasma at 20 mg/kg, po via gavage measured after 20 hrs; format: ADME, organism-based; conditions: in vivo
# [33] = test system: Liver; test: Drug metabolism in human liver microsomes assessed as hydro defluorination at 1 uM after 60 mins in presence of NADPH by LC-MS method; format: ADME, microsome; conditions: 1 h
# [34] = test system: Liver; test: Drug metabolism in mouse liver microsomes assessed as hydro defluorination at 1 uM after 60 mins in presence of NADPH by LC-MS method; format: ADME, microsome; conditions: 1 h
Structure (SMILES),EC50 [1],EC50 [5],EC50 [6],microsomal CLint at 1 µM [7],solubility kinetic [8],EC50 [9],selectivity ratio [10],solubility kinetic [11],half-life at 1 µM [12],half-life at 1 µM [13],microsomal CLint at 1 µM [14],hepatic extraction ratio at 1 µM [17],hepatic extraction ratio at 1 µM [18],EC50 [19],Activity [20],EC50 [21],Drug uptake [24],Activity [25],Drug metabolism [26],Drug metabolism [27],also measured
CCN(CC)CCCC(C)Nc1ccnc2cc(Cl)ccc12 (centres undefined) [CHLOROQUINE],0.023 µM,0.02 µM,> 40 µM,,,,,,,,,,,,,,,,,,EC50 [2]: 0.608 µM; EC50 [3]: 0.643 µM; EC50 [4]: 0.286 µM
COc1cc2nc(Nc3ccc(F)cc3)nc(NCC3CCCO3)c2cc1OC (centres undefined),0.057 µM,,,27 µL/min/mg,3.1 to 6.3 µM,5.5 µM,96,25 to 50 µM,1.07 h,0.4 h,72 µL/min/mg,0.52,0.61,,,,,,,,Drug metabolism [15]: Metabolite_Detected; Drug metabolism [16]: Metabolite_Detected
COc1cc2nc(Nc3ccc(F)cc3)nc(NCc3ccccc3)c2cc1OC,0.041 µM,,,< 7 µL/min/mg,1.6 to 3.1 µM,2.8 µM,109,1.6 to 3.1 µM,> 4.12 h,0.817 h,35 µL/min/mg,< 0.22,0.43,,,,,,,,Drug metabolism [15]: Metabolite_Detected; Drug metabolism [16]: Metabolite_Detected
CN1CCN(CCNc2nc(Nc3ccc(Cl)c(F)c3)nc3ccccc23)CC1.Cl.Cl,0.027 µM,0.207 µM,4 µM,23 µL/min/mg,10.9 to 22 µM,7.5 µM,275,> 90 µM,1.28 h,0.783 h,37 µL/min/mg,0.47,0.44,0.057 µM,Active,0.453 µM,Active,inactive,Metabolite_Detected,Metabolite_Detected,EC50 [2]: 3.34 µM; Activity [3]: Dose dependent effect; EC50 [3]: 3.12 µM; EC50 [4]: 0.637 µM; Activity [22]: >90%; Activity [23]: >98%; Drug metabolism [28]: Metabolite_Detected; Drug metabolism [29]: Metabolite_Detected; Ratio EC50 [30]: 10; Ratio EC50 [31]: 15 - 25; Drug uptake [32]: Active
CN1CCC(Nc2nc(Nc3ccc(F)c(Cl)c3)nc3ccccc23)CC1.Cl.Cl,0.035 µM,0.223 µM,3.7 µM,< 7 µL/min/mg,11.3 to 23 µM,5.1 µM,145,> 90 µM,> 4.25 h,2.48 h,12 µL/min/mg,< 0.22,0.2,0.054 µM,Active,0.515 µM,Active,inactive,Metabolite_Detected,Metabolite_Detected,Activity [22]: Active; Drug metabolism [28]: Metabolite_Detected; Drug metabolism [29]: Metabolite_Detected; Drug metabolism [33]: Metabolite_Detected; Drug metabolism [34]: Metabolite_Detected; Ratio EC50 [30]: 10; Ratio EC50 [31]: 15 - 25; Drug uptake [32]: Active
CN1CCC(Nc2nc(Nc3ccc(Cl)c(F)c3)nc3ccccc23)CC1.Cl.Cl,0.028 µM,0.22 µM,2.7 µM,10 µL/min/mg,4.2 to 8.4 µM,5.1 µM,179,> 90 µM,3.02 h,3.2 h,9 µL/min/mg,0.28,0.16,0.061 µM,Active,0.554 µM,Active,inactive,Metabolite_Detected,Metabolite_Detected,Drug metabolism [28]: Metabolite_Detected; Drug metabolism [29]: Metabolite_Detected; Ratio EC50 [30]: 10; Ratio EC50 [31]: 15 - 25; Drug uptake [32]: Active
CN1CCN(CCNc2nc(Nc3ccc(F)c(Cl)c3)nc3ccccc23)CC1.Cl.Cl,0.026 µM,0.179 µM,3 µM,< 7 µL/min/mg,11.3 to 23 µM,6.1 µM,240,> 90 µM,> 4.25 h,0.5 h,57 µL/min/mg,< 0.22,0.55,0.049 µM,Active,0.326 µM,Active,inactive,Metabolite_Detected,Metabolite_Detected,EC50 [2]: 2.5 µM; Activity [3]: Dose dependent effect; EC50 [3]: 2.96 µM; EC50 [4]: 0.323 µM; Activity [22]: >90%; Activity [23]: >98%; Drug metabolism [28]: Metabolite_Detected; Drug metabolism [29]: Metabolite_Detected; Drug metabolism [33]: Metabolite_Detected; Drug metabolism [34]: Metabolite_Detected; Ratio EC50 [30]: 10; Ratio EC50 [31]: 15 - 25; Drug uptake [32]: Active
